The record followed here is patent US4897382A, “Organic amide compounds derived from nitrogenous lipids” (priority 1981, dated 1990).

Entries after “also recorded” stand apart in the source; their conditions may differ. Where two headings read alike, the source gives them in different places.

A short description of experiment [1]: Anticonvulsant effects in rat (isoniazide convulsions). The class given is in vivo. How it is done: The in vivo activity of Product 1 was measured by the method described by Costa et al (E. Costa, A. Guidotti and C. C. Mao; "Evidence for involvement of GABA in the Action of Benzodiazepines: Studies in Rat Cerebellum" in Mechanism of Action of Benzodiazepines; Ed. by E. Costa and P. Greengard, New York, Raven Press. pp. 113-130 (1975)) and by Loescher and Frey (Loesher, W. and Frey, H. H.; "Effect of convulsant and anticonvulsant agents on level and metabolism of gamma-aminobutyric acid in mouse brain"; Naunyn-Schmiedeberg's Arch. Pharmacol. 296, 263-269 (1977)). These tests are based on the known activity of isoniazide to cause convulsions and a lowering of the GABA cerebral levels and the glutamic-decarboxylase enzyme activity.

The target of another experiment is T1, dopamine receptors (Rattus norvegicus, UniProt P61169).
T1 construct: on hypophysis sinaptosomal rat membranes; from tissue; host or cells: rat hypophysis (pituitary), synaptosomal membranes
T1 sequence (P61169 whole entry): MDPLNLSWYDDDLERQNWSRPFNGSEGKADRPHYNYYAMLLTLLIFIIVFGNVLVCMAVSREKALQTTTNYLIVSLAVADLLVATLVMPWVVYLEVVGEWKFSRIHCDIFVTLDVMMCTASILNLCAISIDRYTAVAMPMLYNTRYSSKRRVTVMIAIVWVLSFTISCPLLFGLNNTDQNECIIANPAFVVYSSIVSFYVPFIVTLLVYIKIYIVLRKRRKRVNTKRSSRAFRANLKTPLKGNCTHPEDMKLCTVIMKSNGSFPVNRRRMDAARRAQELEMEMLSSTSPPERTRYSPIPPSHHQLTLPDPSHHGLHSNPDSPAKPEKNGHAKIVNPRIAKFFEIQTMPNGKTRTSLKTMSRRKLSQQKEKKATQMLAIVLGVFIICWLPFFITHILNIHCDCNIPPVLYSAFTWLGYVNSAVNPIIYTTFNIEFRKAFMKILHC
In words: Binding of (^3H)-spiroperidole to hypophysis membranes of rat. To be noted: for binding power / in vitro activity, in words: compared to the parent acid or lipid alone; for activity at 1 µM: test substance 10^-6 M; for activity at 0.1 µM: test substance 10^-7 M. How it is done:
The in vitro biological activity was determined by comparative tests measuring the binding power of the labelled spiroperidole (^3 H)-spiroperidole on hypophysis sinaptosomal rat membranes according to the method described by Greese et al (GREESE I., SCHNEIDER R. and SNYDER S. H.; H-spiroperidole labels dopamine receptors in pituitary and brain; Europ. J. Pharmacol. 46, 377-381 (1977)).

Experiment [2] has as its system prolactin. In words: Hypoprolactinemic effect in rats, serum prolactin by RIA, at the circadian peak at 4 p.m. Particulars: for inhibition in vivo at 0.5 mg/kg / inhibition in vivo at 5 mg/kg: Rattus norvegicus; for in vivo (hypoprolactinemic) activity, in words: rats, summary statement.
Experiment [3] relates to prolactin. Nature of the experiment: Hypoprolactinemic effect in rats, serum prolactin by RIA, sulpiride-treated (hyperprolactinemic) animals. Particulars: for inhibition in vivo at 0.5 mg/kg / inhibition in vivo at 5 mg/kg: Rattus norvegicus; for inhibition in vivo at 0.5 mg/kg: read-out: Prolactin Inhibition %, sulpiride 10 γ/kg + 0.5 mg/kg test substance; for inhibition in vivo at 5 mg/kg: read-out: Prolactin Inhibition %, sulpiride 10 γ/kg + 5.0 mg/kg test substance.

Experiment [4] in a line: General pharmacological activity in vitro and in vivo. To be noted: tested in vitro and in vivo in laboratory animals.
Experiment [5] concerns synaptic membranes of the rat cortex. Nature of the experiment: Binding of ^3H-GABA on synaptic membranes of the rat cortex (method of Enna and Snyder). Particulars: for Product bound % (^3H-GABA binding on rat cortex membranes): ^3H-GABA 2.10^-8 M. The source says: Table I presents the results of these tests, expressed in percentage of the fixed active product, comparing the in vitro activity of Product 1 with the activities of the individual components which comprise Product 1.

The mark [6] stands for this setting: isoniazide 160 mg/kg (s.c.) alone.
Setting [7] is: read-out: Product bound % ((^3H) spiroperidole binding to hypophysis membranes), (^3H) spiroperidole 2.10^-9 M (2 nM), test substance 10^-4 M.
Setting [8] is: read-out: Product bound % ((^3H) spiroperidole binding to hypophysis membranes), (^3H) spiroperidole 2.10^-9 M (2 nM), test substance 10^-5 M.
Setting [9] is: read-out: Product bound % ((^3H) spiroperidole binding to hypophysis membranes), (^3H) spiroperidole 2.10^-9 M (2 nM).
Where [10] appears, read: 0.5 mg/kg, circadian peak at 4 p.m.
Setting [11] is: 5.0 mg/kg, circadian peak at 4 p.m.
Setting [12] is: read-out: Prolactin Inhibition %, 0.5 mg/kg, circadian peak at 4 p.m.
The mark [13] stands for this setting: read-out: Prolactin Inhibition %, 5.0 mg/kg, circadian peak at 4 p.m.
Where [14] appears, read: sulpiride 10 γ/kg + 0.5 mg/kg test substance.
[15] abbreviates: sulpiride 10 γ/kg + 5.0 mg/kg test substance.
Setting [16] is: (^3H) spiroperidole 2.10^-9 M (2 nM), test substance 10^-4 M, read-out: Product bound % ((^3H) spiroperidole binding to hypophysis membranes).
[17] abbreviates: (^3H) spiroperidole 2.10^-9 M (2 nM), test substance 10^-5 M, read-out: Product bound % ((^3H) spiroperidole binding to hypophysis membranes).
[18] abbreviates: (^3H) spiroperidole 2.10^-9 M (2 nM), read-out: Product bound % ((^3H) spiroperidole binding to hypophysis membranes).
The mark [19] stands for this setting: read-out: Prolactin Inhibition %.
Where [20] appears, read: isoniazide 160 mg/kg (s.c.) + sphingosine 12 mg/kg (i.p.).

With `NNC(=O)c1ccncc1` [Isoniazide, isoniazide], in experiment [1] (setting [6]), the “Latency of the convulsions measured” value was found to be 3070 ± 110 s, the “Number of animals in convulsions” value was 26/30 and the “Number of dead animals” value stood at 15.
For `CCCCCCCCCCCCCC=CC(O)C(CO)NC(=O)[C@@H]1C=C2c3cccc4[nH]cc(c34)C[C@H]2N(C)C1` (some centres unmarked) [Product 2.2, Lysergylsphingosine-amide], on dopamine receptors, the “binding power / in vitro activity, in words” value was “far superior to either lysergic acid or sphingosine alone”. For the same compound, on dopamine receptors (setting [7]), the activity at 100 µM came out at 35%. Also, the activity at 10 µM on dopamine receptors (setting [8]) is 55%. For the same compound, the activity at 1 µM on dopamine receptors (setting [9]) was 85%. At dopamine receptors (setting [9]), the activity at 0.1 µM amounted to 100%. Further, the Prolactin in the experiment with prolactin [2] (setting [10]) came to 48.0 ± 4.8 ng/mL; in the experiment on prolactin [2] (setting [11]), 40.0 ± 2.6 ng/mL; in the experiment with prolactin [3] (setting [14]), 59.0 ± 6.0 ng/mL; in the experiment on prolactin [3] (setting [15]) it was 49.0 ± 5.0 ng/mL. For the same compound, the values for the inhibition in vivo at 0.5 mg/kg in the experiment on prolactin [2] (setting [12]) and in the experiment on prolactin [3] were 27% and 32%, respectively. Further, the figures for the inhibition in vivo at 5 mg/kg in the experiment on prolactin [2] (setting [13]) and in the experiment on prolactin [3] were 39% and 44%, respectively. Moreover, the “in vivo (hypoprolactinemic) activity, in words” value (shortened to “in vivo … in words”) with prolactin [2] is on record as “far superior to either lysergic acid or sphingosine alone”.
On to `CCCCCCCCCCCCCC=CC(O)C(CO)NC(=O)C1CC2c3cccc4[nH]cc(c34)CC2N(C)C1` (centres unmarked) [Product 3, Dihydrolysergylsphingosine amide], for which the “binding power / in vitro activity, in words” value on dopamine receptors was “significant and far superior, under the same experimental conditions, to that of dihydrolysergic acid or sphingosine alone”. The activity at 100 µM on dopamine receptors (setting [7]) came to 10%. Besides, the activity at 10 µM at dopamine receptors (setting [8]) was determined as 40%. Moreover, the activity at 1 µM at dopamine receptors (setting [9]) worked out at 90%. On dopamine receptors (setting [9]), the activity at 0.1 µM turned out to be 100%. The “action in the central nervous system, in words” value in experiment [4] is “capable of acting directly in the central nervous system”. Besides, the Prolactin with prolactin [2] (setting [10]) was determined as 38.7 ± 4.7 ng/mL; with prolactin [2] (setting [11]), 32.2 ± 5.7 ng/mL; with prolactin [3] (setting [14]) it was 53.7 ± 8.5 ng/mL; in the experiment with prolactin [3] (setting [15]) it was 31.2 ± 2.5 ng/mL. For the same compound, the inhibition in vivo at 0.5 mg/kg in the experiment on prolactin [2] (setting [12]) came out at 42%; in the experiment with prolactin [3] it was 30%. Further, the inhibition in vivo at 5 mg/kg with prolactin [2] (setting [13]) worked out at 52%; with prolactin [3], 60%. Moreover, in the experiment on prolactin [2], the “in vivo … in words” value is reported as “significant biological activity”.
`CN1C[C@H](C(=O)O)CC2c3cccc4[nH]cc(c34)C[C@H]21` (some centres unmarked) [dihydrolysergic acid]: the “Product bound % ((^3H) spiroperidole binding to hypophysis membranes)” value on dopamine receptors ((^3H) spiroperidole 2.10^-9 M (2 nM), test substance 10^-4 M, 100 µM) worked out at 60%; at dopamine receptors ((^3H) spiroperidole 2.10^-9 M (2 nM), test substance 10^-5 M, 10 µM), 90%. Besides, the activity at 100 µM on dopamine receptors (setting [7]) was found to be 45%. The activity at 10 µM on dopamine receptors (setting [8]) stood at 95%. Further, the activity at 1 µM on dopamine receptors (setting [9]) came out at 100%. The activity at 0.1 µM at dopamine receptors (setting [9]) came out at 100%. Also, the inhibition in vivo at 0.5 mg/kg in the experiment on prolactin [2] (setting [12]) and in the experiment on prolactin [3] was 0% in each case. In addition, the inhibition in vivo at 5 mg/kg with prolactin [2] (setting [13]) worked out at 25%. Further, in the experiment with prolactin [2], the “in vivo … in words” value is “weak effect; also recorded: essentially inactive when administered alone”.
As for `CCCCCCCCCCCCCCCC(O)C(N)CO` (centres unmarked) [dihydrosphingosine], the activity at 100 µM at dopamine receptors (setting [16]) worked out at 100%. Moreover, the activity at 10 µM at dopamine receptors (setting [17]) stood at 100%. Moreover, the activity at 1 µM on dopamine receptors (setting [18]) was found to be 100%. In addition, the activity at 0.1 µM at dopamine receptors (setting [18]) was 100%. Besides, the Prolactin worked out at 66.0 ± 4.2 ng/mL in the experiment on prolactin [2] (setting [10]), 60.0 ± 2.8 ng/mL with prolactin [2] (setting [11]), 81.0 ± 11.0 ng/mL in the experiment on prolactin [3] (setting [14]) and 74.0 ± 6.0 ng/mL in the experiment with prolactin [3] (setting [15]). The inhibition in vivo at 0.5 mg/kg with prolactin [2] (setting [19]) turned out to be 0%. For the same compound, the inhibition in vivo at 5 mg/kg in the experiment with prolactin [2] (setting [19]) was 0%.
As to `CN1C[C@@H](C(=O)O)C=C2c3cccc4[nH]cc(c34)C[C@H]21` [isolysergic acid], the “in vivo … in words” value in the experiment with prolactin [2] was “essentially inactive when administered alone”.
For `CN1C[C@H](C(=O)O)C=C2c3cccc4[nH]cc(c34)C[C@H]21` [lysergic acid], on dopamine receptors (setting [7]), the activity at 100 µM came to 60%. The activity at 10 µM on dopamine receptors (setting [8]) was 90%. At dopamine receptors (setting [9]), the activity at 1 µM came out at 100%. Also, the activity at 0.1 µM at dopamine receptors (setting [9]) turned out to be 100%. Further, the Prolactin in the experiment on prolactin [2] (setting [10]) was found to be 61.0 ± 3.8 ng/mL; in the experiment on prolactin [2] (setting [11]), 52.0 ± 6.2 ng/mL; with prolactin [3] (setting [14]), 76.0 ± 9.0 ng/mL; in the experiment on prolactin [3] (setting [15]) it was 73.0 ± 10.0 ng/mL. In addition, the values for the inhibition in vivo at 0.5 mg/kg in the experiment with prolactin [2] (setting [12]) and in the experiment with prolactin [3] were 0% and 13%, respectively. Besides, the inhibition in vivo at 5 mg/kg came to 20% with prolactin [2] (setting [13]) and 16% in the experiment on prolactin [3]. Also, in the experiment on prolactin [2], the “in vivo … in words” value is “essentially inactive when administered alone”.
Regarding `CCCCCCCCCCCCCC=CC(O)C(N)COC1OC(CO)C(O)C(O)C1O` (centres unmarked) [psychosine, Psychosine or galactosylsphingosine], on dopamine receptors (setting [16]), the activity at 100 µM was found to be 60%. Also, the activity at 10 µM on dopamine receptors (setting [17]) was 90%. Further, the activity at 1 µM at dopamine receptors (setting [18]) was 100%. Further, the activity at 0.1 µM at dopamine receptors (setting [18]) came to 100%. The Prolactin in the experiment on prolactin [2] (setting [10]) was 50.0 ± 5.0 ng/mL; with prolactin [2] (setting [11]), 41.0 ± 5.0 ng/mL; in the experiment with prolactin [3] (setting [14]), 70.0 ± 6.0 ng/mL; in the experiment on prolactin [3] (setting [15]), 61.0 ± 7.0 ng/mL. For the same compound, in the experiment with prolactin [2] (setting [19]), the inhibition in vivo at 0.5 mg/kg came to 14%. Also, in the experiment on prolactin [2] (setting [19]), the inhibition in vivo at 5 mg/kg amounted to 30%.
For `CCCCCCCCCCCCC/C=C/[C@@H](O)[C@@H](N)CO` [sphingosine], the “Product bound % (^3H-GABA binding on rat cortex membranes)” value in experiment [5] (test substance 10^-4 M, 100 µM) amounted to 100%; in experiment [5] (test substance 10^-5 M, 10 µM), 100%; in experiment [5] (test substance 10^-6 M, 1 µM), 100%; in experiment [5] (test substance 10^-7 M, 0.1 µM) it was 100%; in experiment [5] (test substance 10^-8 M, 0.01 µM), 100%. The “in vitro biological activity (GABA binding), in words” value in experiment [5] (summary of Table I) is reported as “no biological activity”. Besides, the “Latency of the convulsions measured” value in experiment [1] (setting [20]) was 3700 ± 200 s. Besides, the “Number of animals in convulsions” value in experiment [1] (setting [20]) is recorded as 20/30. The “Number of dead animals” value in experiment [1] (setting [20]) stood at 9. For the same compound, the activity at 100 µM at dopamine receptors (setting [7]) was found to be 100%. The activity at 10 µM on dopamine receptors (setting [8]) came to 100%. For the same compound, the activity at 1 µM at dopamine receptors (setting [9]) was found to be 100%. Also, the activity at 0.1 µM on dopamine receptors (setting [9]) is 100%. The “Prolactin Inhibition %” value in the experiment with prolactin [2] (setting [10]), in the experiment on prolactin [2] (setting [11]) and in the experiment on prolactin [3] (setting [14]) was 0% throughout. The inhibition in vivo at 0.5 mg/kg with prolactin [2] (setting [12]) and with prolactin [3] was 0% throughout. Moreover, the inhibition in vivo at 5 mg/kg in the experiment with prolactin [2] (setting [13]) turned out to be 0%.
